Measurements as given in ChEMBL document CHEMBL6127119 (J Med Chem, 2024).
≈ marks a conversion by molar mass, not a printed value.

Key:
Enterococcus faecium [1] = assay: Antibacterial activity against vancomycin-resistant Enterococcus faecium harboring VanM phenotype incubated for 16 to 24 hrs by CLSI based broth microdilution method; format: functional; settings: time 16-24 hrs
Enterococcus faecium [2] = assay: Antibacterial activity against vancomycin-resistant Enterococcus faecium harboring VanA phenotype incubated for 16 to 24 hrs by CLSI based broth microdilution method; format: functional; settings: time 16-24 hrs
Escherichia coli [3] = assay: Potency index, ratio of Vancomycin MIC to test compound MIC for Escherichia coli […] incubated for 16 to 24 hrs by CLSI based broth microdilution method; format: functional; settings: time 16-24 hrs
Acinetobacter baumannii [4] = assay: Potency index, ratio of Norvancomycin MIC to test compound MIC for Carbapenem-resistant Acinetobacter baumannii clinical isolate incubated for 16 to 24 hrs by CLSI based broth microdilution method; format: functional; settings: time 16-24 hrs
Acinetobacter baumannii [5] = assay: Potency index, ratio of Vancomycin MIC to test compound MIC for Carbapenem-resistant Acinetobacter baumannii clinical isolate incubated for 16 to 24 hrs by CLSI based broth microdilution method; format: functional; settings: time 16-24 hrs
Acinetobacter baumannii [6] = assay: Antibacterial activity against Carbapenem-resistant Acinetobacter baumannii clinical isolate incubated for 16 to 24 hrs by CLSI based broth microdilution method; format: functional; settings: time 16-24 hrs
Enterococcus faecium [7] = assay: Potency index, ratio of Vancomycin MIC to test compound MIC for vancomycin-resistant Enterococcus faecium incubated for 16 to 24 hrs by CLSI based broth microdilution method; format: functional; settings: time 16-24 hrs
Enterococcus faecium [8] = assay: Antibacterial activity against vancomycin-resistant Enterococcus faecium harboring VanB phenotype incubated for 16 to 24 hrs by CLSI based broth microdilution method; format: functional; settings: time 16-24 hrs
Staphylococcus aureus [9] = assay: Antibacterial activity against vancomycin-intermediate Staphylococcus aureus incubated for 16 to 24 hrs by CLSI based broth microdilution method; format: functional; settings: time 16-24 hrs
Klebsiella pneumoniae = assay: Antibacterial activity against Klebsiella pneumoniae clinical isolate incubated for 16 to 24 hrs by CLSI based broth microdilution method; format: functional; settings: time 16-24 hrs
Escherichia coli [10] = assay: Antibacterial activity against Escherichia coli AB1157 incubated for 16 to 24 hrs by CLSI based broth microdilution method; format: functional; settings: time 16-24 hrs
Staphylococcus aureus [11] = assay: Antibacterial activity against methicillin-susceptible Staphylococcus aureus incubated for 16 to 24 hrs by CLSI based broth microdilution method; format: functional; settings: time 16-24 hrs
Escherichia coli [12] = assay: Potency index, ratio of Norvancomycin MIC to test compound MIC for Escherichia coli […] incubated for 16 to 24 hrs by CLSI based broth microdilution method; format: functional; settings: time 16-24 hrs
Staphylococcus aureus [13] = assay: Potency index, ratio of Norvancomycin MIC to test compound MIC for vancomycin-intermediate Staphylococcus aureus incubated for 16 to 24 hrs by CLSI based broth microdilution method; format: functional; settings: time 16-24 hrs
Staphylococcus aureus [14] = assay: Potency index, ratio of Vancomycin MIC to test compound MIC for vancomycin-intermediate Staphylococcus aureus incubated for 16 to 24 hrs by CLSI based broth microdilution method; format: functional; settings: time 16-24 hrs
Pseudomonas aeruginosa = assay: Antibacterial activity against Pseudomonas aeruginosa PAO1 incubated for 16 to 24 hrs by CLSI based broth microdilution method; format: functional; settings: time 16-24 hrs
Enterococcus faecium [15] = assay: Potency index, ratio of Norvancomycin MIC to test compound MIC for vancomycin-resistant Enterococcus faecium incubated for 16 to 24 hrs by CLSI based broth microdilution method; format: functional; settings: time 16-24 hrs
Staphylococcus hominis = assay: Antibacterial activity against methicillin-resistant Staphylococcus hominis clinical isolate incubated for 16 to 24 hrs by CLSI based broth microdilution method; format: functional; settings: time 16-24 hrs
Enterococcus faecium [16] = assay: Antibacterial activity against Enterococcus faecium clinical isolate incubated for 16 to 24 hrs by CLSI based broth microdilution method; format: functional; settings: time 16-24 hrs
Staphylococcus aureus [17] = assay: Antibacterial activity against methicillin-resistant Staphylococcus aureus clinical isolate incubated for 16 to 24 hrs by CLSI based broth microdilution method; format: functional; settings: time 16-24 hrs
Enterococcus faecalis = assay: Antibacterial activity against Enterococcus faecalis clinical isolate incubated for 16 to 24 hrs by CLSI based broth microdilution method; format: functional; settings: time 16-24 hrs
[18] = tested on: Staphylococcus haemolyticus; assay: Antibacterial activity against methicillin-resistant Staphylococcus haemolyticus clinical isolate incubated for 16 to 24 hrs by CLSI based broth microdilution method; format: functional; settings: time 16-24 hrs
[19] = tested on: Staphylococcus epidermidis; assay: Antibacterial activity against methicillin-resistant Staphylococcus epidermidis clinical isolate incubated for 16 to 24 hrs by CLSI based broth microdilution method; format: functional; settings: time 16-24 hrs
HEK-293T [20] = assay: Cytotoxicity against HEK293T cells at 100 ug/ml incubated for 72 hrs by MTT assay; format: toxicity, cell-based; settings: human, dose 100 µg/ml
HEK-293T [21] = assay: Cytotoxicity against HEK293T cells upto […] incubated for 72 hrs by MTT assay; format: toxicity, cell-based; settings: human

SMILES | MIC (Enterococcus faecium [1]) | MIC (Enterococcus faecium [2]) | Ratio (Escherichia coli [3]) | Ratio (Acinetobacter baumannii [4]) | Ratio (Acinetobacter baumannii [5]) | MIC (Acinetobacter baumannii [6]) | Ratio (Enterococcus faecium [7]) | MIC (Enterococcus faecium [8]) | MIC (Staphylococcus aureus [9]) | MIC (Klebsiella pneumoniae) | MIC (Escherichia coli [10]) | MIC (Staphylococcus aureus [11]) | Ratio (Escherichia coli [12]) | Ratio (Staphylococcus aureus [13]) | Ratio (Staphylococcus aureus [14]) | MIC (Pseudomonas aeruginosa) | Ratio (Enterococcus faecium [15]) | also measured
CC(C)C[C@@H](N)C(=O)N[C@H]1C(=O)N[C@@H](CC(N)=O)C(=O)N[C@H]2C(=O)N[C@H]3C(=O)N[C@H](C(=O)N[C@H](C(=O)NCCc4ccc(-c5ccc(CNC(=N)N)cc5)cc4)c4cc(O)cc(O)c4-c4cc3ccc4O)[C@H](O)c3ccc(c(Cl)c3)Oc3cc2cc(c3O[C@@H]2O[C@H](CO)[C@@H](O)[C@H](O)[C@H]2O[C@H]2C[C@](C)(N)[C@H](O)[C@H](C)O2)Oc2ccc(cc2Cl)[C@H]1O | 4 µg/mL (≈ 2.37 µM) | 4 µg/mL (≈ 2.37 µM) | 2 | 2 | 2 | 128 µg/mL (≈ 75.9 µM) | 2 | 4 µg/mL (≈ 2.37 µM) | 0.5 µg/mL (≈ 0.297 µM) | > 128 µg/mL | 8 µg/mL (≈ 4.75 µM) | 0.125 µg/mL (≈ 0.0742 µM) | 2 | 2 | 2 | > 128 µg/mL | 2 | –
CN[C@H](CC(C)C)C(=O)N[C@H]1C(=O)N[C@@H](CC(N)=O)C(=O)N[C@H]2C(=O)N[C@H]3C(=O)N[C@H](C(=O)N[C@H](C(=O)O)c4cc(O)cc(O)c4-c4cc3ccc4O)[C@H](O[C@H]3C[C@](C)(N)[C@@H](O)[C@H](C)O3)c3ccc(c(Cl)c3)Oc3cc2cc(c3O[C@@H]2O[C@H](CO)[C@@H](O)[C@H](O)[C@H]2O[C@H]2C[C@](C)(NCc3ccc(-c4ccc(Cl)cc4)cc3)[C@@H](O)[C@H](C)O2)Oc2ccc(cc2Cl)[C@H]1O [ORITAVANCIN] | – | – | – | – | – | – | – | – | – | – | – | – | – | – | – | – | – | MIC (Staphylococcus hominis): 0.12 µg/mL (≈ 0.0669 µM); MIC (Enterococcus faecium [16]): ≤ 0.03 µg/mL; MIC (Staphylococcus aureus [17]): 0.12 µg/mL (≈ 0.0669 µM); MIC (Enterococcus faecalis): ≤ 0.03 µg/mL; MIC [18]: 0.06 µg/mL (≈ 0.0335 µM); MIC [19]: 0.12 µg/mL (≈ 0.0669 µM)
CN[C@H](CC(C)C)C(=O)N[C@H]1C(=O)N[C@@H](CC(N)=O)C(=O)N[C@H]2C(=O)N[C@H]3C(=O)N[C@H](C(=O)N[C@H](C(=O)NCCCCCCCCN)c4cc(O)cc(O)c4-c4cc3ccc4O)[C@H](O)c3ccc(c(Cl)c3)Oc3cc2cc(c3O[C@@H]2O[C@H](CO)[C@@H](O)[C@H](O)[C@H]2O[C@H]2C[C@](C)(N)[C@H](O)[C@H](C)O2)Oc2ccc(cc2Cl)[C@H]1O | 64 µg/mL (≈ 40.6 µM) | 64 µg/mL (≈ 40.6 µM) | – | – | – | 128 µg/mL (≈ 81.2 µM) | – | 16 µg/mL (≈ 10.2 µM) | 2 µg/mL (≈ 1.27 µM) | > 128 µg/mL | 64 µg/mL (≈ 40.6 µM) | 1 µg/mL (≈ 0.635 µM) | – | – | – | 128 µg/mL (≈ 81.2 µM) | – | Activity (HEK-293T [20]): Non-Toxic; Activity (HEK-293T [21]): Non-Toxic
CN[C@H](CC(C)C)C(=O)N[C@H]1C(=O)N[C@@H](CC(N)=O)C(=O)N[C@H]2C(=O)N[C@H]3C(=O)N[C@H](C(=O)N[C@H](C(=O)NCc4ccc(-c5ccc(CCNC(=N)N)cc5)cc4)c4cc(O)cc(O)c4-c4cc3ccc4O)[C@H](O)c3ccc(c(Cl)c3)Oc3cc2cc(c3O[C@@H]2O[C@H](CO)[C@@H](O)[C@H](O)[C@H]2O[C@H]2C[C@](C)(N)[C@H](O)[C@H](C)O2)Oc2ccc(cc2Cl)[C@H]1O | 2 µg/mL (≈ 1.18 µM) | 2 µg/mL (≈ 1.18 µM) | 2 | 2 | 2 | 16 µg/mL (≈ 9.41 µM) | 2 | 1 µg/mL (≈ 0.588 µM) | 0.5 µg/mL (≈ 0.294 µM) | > 128 µg/mL | 8 µg/mL (≈ 4.71 µM) | 0.25 µg/mL (≈ 0.147 µM) | 2 | 2 | 2 | – | 2 | –
CN[C@H](CC(C)C)C(=O)N[C@H]1C(=O)N[C@@H](CC(N)=O)C(=O)N[C@H]2C(=O)N[C@H]3C(=O)N[C@H](C(=O)N[C@H](C(=O)NCCc4ccc(-c5ccc(CNC(=N)N)cc5)cc4)c4cc(O)cc(O)c4-c4cc3ccc4O)[C@H](O)c3ccc(c(Cl)c3)Oc3cc2cc(c3O[C@@H]2O[C@H](CO)[C@@H](O)[C@H](O)[C@H]2O[C@H]2C[C@](C)(N)[C@H](O)[C@H](C)O2)Oc2ccc(cc2Cl)[C@H]1O | 2 µg/mL (≈ 1.18 µM) | 2 µg/mL (≈ 1.18 µM) | 2 | 2 | 2 | 64 µg/mL (≈ 37.7 µM) | 2 | 4 µg/mL (≈ 2.35 µM) | 0.5 µg/mL (≈ 0.294 µM) | > 128 µg/mL | 8 µg/mL (≈ 4.71 µM) | 0.125 µg/mL (≈ 0.0735 µM) | 2 | 2 | 2 | – | 2 | –
